One series deals with COS.7 cells. Particulars: cited from earlier work.
The test system of the next series is many cell types. Particulars: cited from earlier work.
The test system of series [1] is 1HAEo- human airway epithelial cells. Briefly: In vitro transfection with LPD formulations, luciferase reporter assay. It counts as cell-based. Particulars: 1HAEo- cells; LPD with peptide ME27 and plasmid pCI-Luc; FIG. 2. The method, then: (§1) Cells tested included 1HAEo-human airway epithelial cells, NIH3T3 murine fibroblasts, and Neuro2A murine neuroblastoma cells. Cells were seeded into 96-well plates at approximately 2×10^4 cells per well, then incubated overnight at 37° C. in complete growth medium. The following day, lipopolyplex (LPD) formulations were prepared essentially as described previously (Hart et al., 1998), by mixing the components in the following order: 50 μl of lipid (L) at 80 μg/ml in OptiMEM, 70 μl of peptide (P) at 110 μg/ml in OptiMEM and 50 μl of plasmid pCI-Luc (D) at 40 μg/ml in OptiMEM corresponding to a weight ratio of 2:4:1, respectively. […] The cells were incubated with the complexes for 4 h at 37° C. before replacing with fresh media for 24 h, after which reporter gene expression was analyzed by luciferase assay (Promega, Madison, Wis., USA). […]
(§2) Cells were washed once with PBS before the addition of 20 μl of 1× Reporter Lysis Buffer (Promega, Madison, Wis., USA) to the cells for 20 min at 4° C. before freezing at −80° C. for at least 30 min, followed by thawing at room temperature. Then the luciferase activity was measured during 10 seconds using the Luciferase Assay System (Promega, Madison, Wis., USA) and an Optima Fluostar plate reader (BMG Labtech). […] In vitro luciferase activity was expressed as Relative Light Units (RLU) per milligram of protein (RLU/mg).

The nature of series [2]: Transmission electron microscope imaging of LPD particles. It is filed as physicochemical. Particulars: peptide ME27; weight ratio 0.75:4:1 (L:P:D); FIG. 5 and FIG. 6. The source says:
Transmission Electon Microscope images of LPD particles comprising FMM30 with peptide ME27 at a weight ratio of 0.75:4:1 (L:P:D) is shown in FIG. 5 (FMM30-PD-0.75) and lipids FMM30/DOPE at the same weight ratio is shown in FIG. 6 (FMM30/DOPE-PD 0.75).

Series [3] has as its system NIH3T3 murine fibroblasts. Briefly: In vitro transfection with LPD formulations, luciferase reporter assay. It is filed as cell-based. Particulars: NIH3T3 cells; LPD with peptide ME27 and plasmid pCI-Luc; FIG. 1. As for the experimental part: as §1, §2
The nature of series [4]: Size of LPD nanoparticles by dynamic light scattering. It counts as physicochemical. Particulars: peptide ME27; weight ratio 0.75:4:1 (L:P:D); FIG. 7. The method, then: The size of LPD nanoparticles containing peptides ME27 with lipids FMM30 or FMM30/DPE were determined at different weight ratios of liposome to DNA (w/w) by dynamic light scattering using a NanoZS Zetasizer (Malvern).

For series [5] the following is noted: cited from earlier work.

The structures appear in SMILES notation.

As to `CCCCCCCC/C=C\CCCCCCCCOCC(C[N+](C)(C)CCO)OCCCCCCCC/C=C\CCCCCCCC.[Br-]` (stereo not drawn) [DORIE 6], in the series with COS.7 cells (co-formulation with helper lipid DOPE 2, compared to lipids with hydroxypropyl-hydroxypentyl groups), the “transfection efficacies in COS.7 cells” value was “higher transfection efficacies”.

Regarding `CCCCCCCCCCCCCCOCC(C[N+](C)(C)CCO)OCCCCCCCCCCCCCC.[Br-]` (stereo not drawn) [DMRIE 7], the “transfection activity of hydroxyalkyl cytofectins” value with COS.7 cells (compared with DOTMA 1) is “one of the more efficient lipids”.

Take `CCCCCCCC/C=C\CCCCCCCC(=O)OCC(C[N+](C)(C)C)OC(=O)CCCCCCC/C=C\CCCCCCCC` (stereo not drawn) [DOTAP 4]: the “levels of transfection in vitro” value in the series with many cell types is reported as “comparable levels of transfection”.

Consider `CCCCCCCC/C=C\CCCCCCCCOCC(C[N+](C)(C)CCOCCOCCOCCOC(=O)CCCCCCC/C=C\CCCCCCCC)OCCCCCCCC/C=C\CCCCCCCC` (stereo not drawn) [FMM30, (9Z)—N-(2,3-bis((9Z)-octadecenyloxy)propyl)-N,N-dimethyl-13-oxo-3,6,9,12-tetraoxatriacont-21-en-1-aminium bromide], for which the transfection levels result in series [1] and in series [3] was “far higher than the bi-chain lipid CH300” each time. Further, the “particle size and shape in TEM images” value in series [2] is “quite similar sizes with a combination of shapes including rods and spheres”. For the same compound, in series [4], the “size of LPD nanoparticles” value is on record as “approximately 80 nm”.

For the compound `CCCCCCCC/C=C\CCCCCCCCOCC(C[N+](C)(C)C)OCCCCCCCC/C=C\CCCCCCCC.[Cl-]` (stereo not drawn) [DOTMA 1], the “transfection activities in vivo” value in series [5] was “exhibited higher transfection activities”. Also, the “levels of transfection in vitro” value with many cell types is “comparable levels of transfection”.

Source of the values: patent US11098006B2, “Lipids and complexes for the delivery of biologically-active material to cells” (RYBOQUIN COMPANY LTD, priority 2016, dated 2021).
